From PubChem BioAssay (NCI)
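All cell lines were grown in 96-well plates and treated with compound for 48 hours. TGI is the concentration that stops growth completely.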

Tests used:
Assay in all cases: NCI tumour cell line growth inhibition, 48 h
UACC-62 melanoma = system: UACC-62 melanoma
SF-268 CNS = system: SF-268 CNS
OVCAR-3 ovarian = system: OVCAR-3 ovarian
HOP-92 NSCLC = system: HOP-92 NSCLC
NCI-H226 lung = system: NCI-H226 lung
KM12 colon = system: KM12 colon
SNB-19 CNS = system: SNB-19 CNS
RPMI-8226 leukemia = system: RPMI-8226 leukemia
TK-10 renal = system: TK-10 renal
ACHN renal = system: ACHN renal
IGROV1 ovarian = system: IGROV1 ovarian
MOLT-4 leukemia = system: MOLT-4 leukemia
LOX IMVI melanoma = system: LOX IMVI melanoma
NCI/ADR-RES ovarian = system: NCI/ADR-RES ovarian
MDA-MB-435 = system: MDA-MB-435
T-47D breast = system: T-47D breast

Structure (SMILES)	TGI (UACC-62 melanoma)	TGI (SF-268 CNS)	TGI (OVCAR-3 ovarian)	TGI (HOP-92 NSCLC)	TGI (NCI-H226 lung)	TGI (KM12 colon)	TGI (SNB-19 CNS)	TGI (RPMI-8226 leukemia)	TGI (TK-10 renal)	TGI (ACHN renal)	TGI (IGROV1 ovarian)	TGI (MOLT-4 leukemia)	TGI (LOX IMVI melanoma)	TGI (NCI/ADR-RES ovarian)	TGI (MDA-MB-435)	TGI (T-47D breast)
Cc1ccc(S(=O)(=O)NC(=O)C2S(=O)(=O)OCCOS2(=O)=O)cc1	> 100 µM	> 100 µM	> 100 µM	> 100 µM	> 100 µM	> 100 µM	> 100 µM	> 100 µM	> 100 µM							
[N-]=[N+]=CC(=O)C1(C(=O)C=[N+]=[N-])CC1		> 100 µM	> 100 µM		> 100 µM	> 100 µM	> 100 µM		> 100 µM	> 100 µM	> 100 µM	> 100 µM	> 100 µM			
NC(Cc1ccc(O)cn1)C(=O)NC(C(=O)O)c1ccccc1 (centres undefined)		> 100 µM	> 100 µM	> 100 µM	> 100 µM	> 100 µM	> 100 µM	> 100 µM	> 100 µM	> 100 µM	> 100 µM	> 100 µM	> 100 µM	> 100 µM	> 100 µM	
CCC(=O)OC1CCn2c1nc1c2C(=O)C(C)=C(NC(C)=O)C1=O (centres undefined)	3.43 µM	3.2 µM	0.572 µM	3.5 µM	3.27 µM	4.03 µM	6.75 µM	5.66 µM	17 µM	11.7 µM	3.98 µM		2.7 µM			
COc1cc(C2CC(C)(N3CCOCC3)Oc3cc4c(cc32)OCO4)cc(OC)c1OC (centres undefined)	> 100 µM	> 100 µM	> 100 µM	> 100 µM	> 88.4 µM	> 100 µM	> 100 µM	0.151 µM		> 100 µM	> 35.9 µM	> 100 µM	> 100 µM	> 100 µM	> 100 µM	
Cc1ccc(S(=O)(=O)NC(=O)Nc2c(S(N)(=O)=O)cc(S(N)(=O)=O)c(Cl)c2Cl)cc1	> 100 µM	> 100 µM	> 100 µM	> 100 µM	> 100 µM	> 100 µM	> 100 µM	> 100 µM	> 100 µM	> 100 µM	> 100 µM	> 100 µM	> 100 µM	> 100 µM	> 100 µM	
Nc1cn(C2OC(CC(c3ccccc3)(c3ccccc3)c3ccccc3)C(O)C2O)c(=O)[nH]c1=O (centres undefined)	28.5 µM	> 100 µM	37.9 µM	39 µM	> 100 µM	> 100 µM	> 100 µM	42 µM	96.2 µM	> 100 µM	70.7 µM	63.4 µM	35.2 µM			
CC(C)OP(=O)(OC(C)C)C(=NCCO)NNc1ccc([N+](=O)[O-])cc1	> 100 µM	> 100 µM	> 100 µM	> 100 µM	> 100 µM	> 100 µM	> 100 µM	> 100 µM	> 100 µM	> 100 µM		> 100 µM	> 100 µM			
CC1CC(=O)Nc2ccc(Cl)cc2N1C(=O)CN1CCC(CCCCN(C)C)CC1 (centres undefined)	> 100 µM	> 100 µM	> 100 µM	> 100 µM	> 100 µM		> 100 µM	> 100 µM	> 100 µM	> 100 µM	> 100 µM	> 100 µM	> 100 µM			
CCOC(=O)/C=C/n1c2ccccc2c(=O)c2cc(OC)ccc21	> 100 µM	> 100 µM	> 100 µM	> 100 µM	> 100 µM	> 100 µM	> 100 µM		> 100 µM	> 100 µM	> 100 µM	> 100 µM	41.3 µM			
COC(=O)C(C(=O)C(=O)Nc1ccc(C)cc1)c1nc2ccc([N+](=O)[O-])cc2[nH]c1=O (centres undefined)	> 100 µM	> 100 µM	> 100 µM		> 100 µM	> 100 µM	> 100 µM		> 100 µM	> 100 µM	> 100 µM	> 100 µM	> 100 µM			
O=C1c2ccccc2N=C(c2cc3c(cc2Cl)Sc2nccn2S3(=O)=O)OS(=O)(=O)N1c1ccccc1	50.1 µM	> 100 µM	> 100 µM	> 100 µM	> 100 µM	> 100 µM	> 100 µM	46.4 µM	> 100 µM	> 100 µM		32.8 µM	32 µM		51.4 µM	> 100 µM
NC(CCSCC(F)(F)F)C(=O)O (centres undefined)	> 100 µM	> 100 µM	> 100 µM	> 100 µM	> 100 µM	> 100 µM	> 100 µM		> 100 µM	> 100 µM	> 100 µM	> 100 µM	> 100 µM			
Cc1sc2c(c1C)C(=O)c1cccn1-2	> 100 µM	> 100 µM	> 100 µM		> 100 µM	> 100 µM	> 100 µM	> 100 µM	> 100 µM	> 100 µM	> 100 µM	> 100 µM	> 100 µM	> 100 µM	> 100 µM	> 100 µM
CCCCn1c(-c2ccccc2)cs/c1=N\N=C1C=C(C(C)(C)C)C(=O)C(C(C)(C)C)=C1	> 100 µM	> 100 µM	> 100 µM		> 100 µM		> 100 µM		> 100 µM	> 100 µM	> 100 µM	> 100 µM	> 100 µM			
O=C(Nc1cccc(C(F)(F)F)c1)C(=O)C(C(=O)c1ccc(Cl)c(Cl)c1)C1OC(=O)c2ccccc21 (centres undefined)	88.3 µM	> 100 µM	> 100 µM	> 100 µM	62.5 µM	> 100 µM	> 100 µM	> 100 µM	> 100 µM	> 100 µM	> 100 µM	> 100 µM	> 100 µM			
O=C1NC(=O)C(C(=O)C(=O)Nc2cc(Cl)ccc2Cl)C(=O)N1	> 100 µM	> 100 µM	> 100 µM	> 100 µM		> 100 µM	> 100 µM	> 100 µM	> 100 µM	> 100 µM	> 100 µM	> 100 µM				

Structure (SMILES)	TGI (UACC-62 melanoma)	TGI (SF-268 CNS)	TGI (OVCAR-3 ovarian)	TGI (HOP-92 NSCLC)	TGI (NCI-H226 lung)	TGI (KM12 colon)	TGI (SNB-19 CNS)	TGI (RPMI-8226 leukemia)	TGI (TK-10 renal)	TGI (ACHN renal)	TGI (IGROV1 ovarian)	TGI (MOLT-4 leukemia)	TGI (LOX IMVI melanoma)	TGI (NCI/ADR-RES ovarian)	TGI (MDA-MB-435)	TGI (T-47D breast)
Cc1ccc2nc(NC(=O)C(=O)C(C(=O)c3ccc4ccccc4c3)C3OC(=O)c4ccccc43)sc2c1 (centres undefined)	25 µM	31.3 µM	> 100 µM	15.2 µM	5.43 µM	37.4 µM	26.4 µM	> 100 µM		46.1 µM	44.3 µM		27.7 µM			
CCN(CC)CC1CCCCN1CC(=O)N1c2cc(Cl)ccc2NC(=O)CC1C (centres undefined)	> 100 µM	> 100 µM	> 100 µM	> 100 µM	> 100 µM	> 100 µM	> 100 µM	> 100 µM	> 100 µM	> 100 µM		> 100 µM	> 100 µM			
Cc1ccc(Nc2c3c(c(C#N)c4nc5ccccc5n24)CCCC3)cc1	71.2 µM	> 100 µM	34.6 µM	76.2 µM	62 µM	> 100 µM	> 100 µM		> 100 µM	> 100 µM	> 100 µM	40.6 µM	> 100 µM	61.9 µM	45.8 µM	> 100 µM
C/C(=N\Nc1ccccc1)c1sc(-c2nc(C)c(/C(C)=N/Nc3ccccc3)s2)nc1C	13.6 µM	> 64.6 µM	59.9 µM	> 57.6 µM	> 95.7 µM	> 100 µM	> 100 µM	> 100 µM	> 100 µM	> 32 µM	> 60.9 µM	> 100 µM	> 100 µM			
C/C(=C1/N=C(c2cc([N+](=O)[O-])ccc2Cl)N(c2ccc(Br)cc2)C1=O)c1ccc(N(CCC#N)CCC#N)cc1C	97.5 µM	> 100 µM	99.7 µM	> 100 µM	> 100 µM	> 100 µM	> 100 µM	77.2 µM	> 100 µM	> 100 µM	> 100 µM	> 100 µM	29.1 µM			
CC(=O)NNc1nc(C)c(C(=O)NNC(=O)C(=O)Nc2ccc(Cl)c([N+](=O)[O-])c2)s1	> 100 µM	> 100 µM	80.8 µM	> 100 µM	> 100 µM	> 100 µM	> 100 µM	> 100 µM	> 100 µM	> 100 µM	> 100 µM	54.6 µM	> 100 µM			
N#C/C(=C\c1ccc(O)c(O)c1)c1c(C#N)c(N)nn1-c1ccccc1	> 100 µM	> 100 µM	6.63 µM	> 100 µM		> 100 µM	42.4 µM		> 100 µM	26.9 µM	14.5 µM		44 µM			
Clc1ccc(Nc2ncco2)cc1Cl	> 10 µM	> 10 µM	> 10 µM	> 10 µM	> 10 µM	> 10 µM	> 10 µM		> 10 µM	> 10 µM	> 10 µM	> 10 µM	> 10 µM	> 10 µM	> 10 µM	> 10 µM
COC1(OC)CC2C(=O)N(Cc3ccccc3)C1C(S(=O)(=O)c1ccccc1)C2C(C)S(=O)(=O)c1ccccc1 (centres undefined)	> 100 µM	> 100 µM	> 100 µM	> 100 µM		> 100 µM	> 100 µM	> 100 µM	> 100 µM	> 100 µM	> 100 µM	> 100 µM	> 100 µM			
C[N+]1=C(c2cccnc2/C=N/O)OCC1(C)C	> 100 µM	> 100 µM	> 100 µM	> 100 µM	> 100 µM	> 100 µM	> 100 µM		> 100 µM	> 100 µM	> 100 µM	> 100 µM	> 100 µM			
CC1=C(C(=O)NNC(=O)Cc2ccccc2)CC(C(=O)NNC(=O)Cc2ccccc2)=C(C)N1	> 100 µM	> 100 µM	> 100 µM	> 100 µM	> 100 µM	> 100 µM	> 100 µM		> 100 µM	> 100 µM	> 100 µM		> 100 µM	> 100 µM	> 100 µM	> 100 µM
Oc1ccc(-c2c3ccccc3c(-c3ccc(O)cc3)c3ccccc23)cc1	> 100 µM	> 100 µM	> 100 µM	> 100 µM	> 100 µM	> 100 µM	> 100 µM	> 100 µM	> 100 µM	> 100 µM	> 100 µM	> 100 µM	> 100 µM			
COc1ccccc1-n1cnc2c1NC(C)(C)N=C2C(N)=O	> 100 µM	> 100 µM	> 100 µM		> 100 µM	> 100 µM	> 100 µM	> 100 µM	> 100 µM	> 100 µM	> 100 µM		> 100 µM	> 100 µM	> 100 µM	> 100 µM
COc1ccc(-c2nc(-c3ccc(OC)cc3)n(-c3ccccc3)n2)cc1	> 100 µM	> 100 µM	> 100 µM	> 100 µM	> 100 µM	> 100 µM	> 100 µM		> 100 µM	> 100 µM	> 100 µM	> 100 µM	> 100 µM	> 100 µM	> 100 µM	> 100 µM
c1ccc(-c2csc3c2-n2cccc2C3N2CCCC2)cc1 (centres undefined)		78.7 µM	> 100 µM	81.9 µM	> 100 µM	> 100 µM	> 100 µM	> 100 µM	99.7 µM	> 100 µM	> 100 µM	> 100 µM	> 100 µM	> 100 µM	> 100 µM	
O=C(Nc1ccccc1[N+](=O)[O-])/C(=N/Nc1cccc(Cl)c1)c1c(O)c2ccccc2oc1=O	> 100 µM	> 100 µM	> 100 µM	96.5 µM	> 100 µM	> 100 µM	> 100 µM		> 100 µM	> 100 µM	> 100 µM	> 100 µM	> 100 µM			
Cc1ccc2nc(N)[nH]c(=O)c2c1Sc1ccncc1	> 31.6 µM	> 100 µM	> 100 µM	> 100 µM		> 100 µM	> 100 µM	> 100 µM	> 100 µM	> 100 µM	> 100 µM	> 100 µM	> 100 µM			
